≈ marks a conversion by molar mass, not a printed value.
Columns and labels:
[1] = target: T1, Human immunodeficiency virus type 1 integrase (Human immunodeficiency virus 1, UniProt Q7ZJM1); assay: Inhibition of recombinant HIV-1 integrase 3'-processing activity using 32P 5' end-labeled linear 21'mer as substrate preincubated for 30 mins prior to substrate challenge by phosphorimaging analysis
[2] = target: T1, Human immunodeficiency virus type 1 integrase; assay: Inhibition of recombinant HIV-1 integrase strand transfer activity using 32P 5' end-labeled linear 21'mer as substrate preincubated for 30 mins prior to substrate challenge by phosphorimaging analysis
[3] = tested on: Human immunodeficiency virus 1; assay: Antiviral activity against HIV-1 3B infected in human C8166 cells assessed as inhibition of virus-induced cytopathogenicity by measuring syncytial cell number after 3 days by inverted microscopic analysis; format: functional, organism-based; settings: Human immunodeficiency virus 1, 3B, C8166, 72 h
[4] = Cytotoxicity against human C8166 cells assessed as inhibition of cell proliferation after 72 hrs by MTT assay; format: cell-based
[5] = Therapeutic index, ratio of CC50 for human C8166 cells to EC50 for HIV-1 3B infected in human C8166 cells; format: cell-based; settings: HIV-1 3B infected C8166 cells, read-out: Ratio CC50/EC50
[6] = target: T1, Human immunodeficiency virus type 1 integrase; assay: Inhibition of His6-tagged HIV-1 integrase assessed as decrease in integrase-Flag-LEDGF/p75 interaction preincubated with enzyme for 30 mins followed by addition of Flag-LEDGF/p75 for 1 hr by AlphaScreen assay

T1 sequence (Q7ZJM1 whole entry): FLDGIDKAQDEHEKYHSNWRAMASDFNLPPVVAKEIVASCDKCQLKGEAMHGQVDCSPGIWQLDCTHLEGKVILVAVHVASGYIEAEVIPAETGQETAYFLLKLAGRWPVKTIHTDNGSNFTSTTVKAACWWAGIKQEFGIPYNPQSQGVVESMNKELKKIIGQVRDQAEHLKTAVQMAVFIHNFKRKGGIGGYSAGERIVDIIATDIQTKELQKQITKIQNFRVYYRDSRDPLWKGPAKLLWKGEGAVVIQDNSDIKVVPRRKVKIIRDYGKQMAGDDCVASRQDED

For O=c1c(OCc2ccc(F)cc2)c(-c2ccc(O)c(O)c2)oc2cc(O)cc(O)c12, the IC50 [1] was > 20 µM, the IC50 [2] was > 20 µM and the EC50 [3] was 1.95 µg/mL (≈ 4.75 µM). For the same compound, the CC50 at 72 h [4] was 22.5 µg/mL (≈ 54.8 µM), the selectivity ratio [5] was 12 and the IC50 [6] was 0.38 µM.
With O=c1c(O)c(-c2ccc(O)c(O)c2)oc2cc(OCc3ccc(F)cc3)cc(O)c12 the IC50 [1] was 20 µM, the IC50 [2] was 4 µM and the EC50 [3] was > 5.68 µg/mL. For the same compound, the CC50 at 72 h [4] was 5.68 µg/mL (≈ 13.8 µM) and the IC50 [6] was 0.94 µM.
In the case of O=c1c(O)c(-c2ccc(O)c(O)c2)oc2cc(N3CCOCC3)cc(O)c12, the IC50 [1] is reported as > 20 µM, the IC50 [2] is reported as > 20 µM and the EC50 [3] is reported as 5.05 µg/mL (≈ 13.6 µM). For the same compound, the CC50 at 72 h [4] was 24.7 µg/mL (≈ 66.5 µM), the selectivity ratio [5] was 5 and the IC50 [6] was 0.97 µM.
For O=c1cc(-c2ccccc2)oc2cc(OCc3ccc(F)cc3)c(O)c(O)c12, the IC50 [1] was > 20 µM, the IC50 [2] was 7 µM and the EC50 [3] was 3.04 µg/mL (≈ 8.03 µM). The CC50 at 72 h [4] was 5.8 µg/mL (≈ 15.3 µM), the selectivity ratio [5] was 2 and the IC50 [6] was > 20 µM.
In the case of CC(C)(C)Oc1cc2oc(-c3ccccc3)cc(=O)c2c(O)c1O, the IC50 [1] is reported as > 100 µM, the IC50 [2] is reported as > 100 µM and the EC50 [3] is reported as 8.45 µg/mL (≈ 25.9 µM). For the same compound, the CC50 at 72 h [4] was 40.5 µg/mL (≈ 124 µM), the selectivity ratio [5] was 5 and the IC50 [6] was > 20 µM.
With O=c1cc(-c2ccc(O)c(O)c2)oc2cc(OCc3ccc(F)cc3)cc(O)c12 the IC50 [1] was > 20 µM, the IC50 [2] was > 20 µM and the EC50 [3] was 7.37 µg/mL (≈ 18.7 µM). The CC50 at 72 h [4] was 16.2 µg/mL (≈ 41.1 µM) and the selectivity ratio [5] was 2.
For O=c1cc(-c2ccc(O)c(O)c2)oc2cc(N3CCOCC3)cc(O)c12, the IC50 [1] was > 20 µM, the IC50 [2] was > 20 µM and the EC50 [3] was 2.21 µg/mL (≈ 6.22 µM). For the same compound, the CC50 at 72 h [4] was 63.6 µg/mL (≈ 179 µM), the selectivity ratio [5] was 29 and the IC50 [6] was 1.6 µM.
In the case of O=c1cc(-c2ccc(O)cc2)oc2cc(OCc3ccc(F)cc3)cc(O)c12, the IC50 [1] is reported as 80 µM, the IC50 [2] is reported as 35 µM and the EC50 [3] is reported as 10.7 µg/mL (≈ 28.3 µM). For the same compound, the CC50 at 72 h [4] was 16.8 µg/mL (≈ 44.4 µM), the selectivity ratio [5] was 1.6 and the IC50 [6] was > 20 µM.
With CC(C)(C)Oc1cc(O)c2c(=O)cc(-c3ccc(O)cc3)oc2c1 the IC50 [1] was > 20 µM, the IC50 [2] was > 20 µM and the EC50 [3] was 3.2 µg/mL (≈ 9.81 µM). The CC50 at 72 h [4] was 25 µg/mL (≈ 76.6 µM), the selectivity ratio [5] was 8 and the IC50 [6] was > 20 µM.
With O=c1cc(-c2ccc(O)cc2)oc2cc(N3CCOCC3)cc(O)c12 the IC50 [1] was > 20 µM, the IC50 [2] was > 20 µM and the EC50 [3] was 68.4 µg/mL (≈ 202 µM). It also gave a CC50 at 72 h [4] of 105 µg/mL (≈ 311 µM), a selectivity ratio [5] of 1.5 and an IC50 [6] of 1.7 µM.
With O=c1cc(-c2ccccc2)oc2cc(OCc3ccc(F)cc3)cc(O)c12 the IC50 [1] was > 20 µM, the IC50 [2] was > 20 µM and the EC50 [3] was > 8.35 µg/mL. For the same compound, the CC50 at 72 h [4] was 8.35 µg/mL (≈ 23 µM) and the IC50 [6] was > 20 µM.
With CC(C)(C)Oc1cc(O)c2c(=O)cc(-c3ccccc3)oc2c1 the IC50 [1] was > 100 µM, the IC50 [2] was 50 µM and the EC50 [3] was 12.1 µg/mL (≈ 39 µM). The CC50 at 72 h [4] was 61.2 µg/mL (≈ 197 µM), the selectivity ratio [5] was 5 and the IC50 [6] was > 20 µM.
With O=c1cc(-c2ccccc2)oc2cc(N3CCOCC3)cc(O)c12 the IC50 [1] was > 20 µM, the IC50 [2] was > 20 µM and the EC50 [3] was > 200 µg/mL. For the same compound, the CC50 at 72 h [4] was > 200 µg/mL and the IC50 [6] was > 20 µM.
For O=C1C[C@@H](c2ccc(O)cc2)Oc2cc(OCc3ccc(F)cc3)cc(O)c21, the IC50 [1] was > 100 µM, the IC50 [2] was > 100 µM and the EC50 [3] was 2.06 µg/mL (≈ 5.42 µM). It also gave a CC50 at 72 h [4] of 11.5 µg/mL (≈ 30.2 µM) and a selectivity ratio [5] of 6.
With CC(C)(C)Oc1cc(O)c2c(c1)O[C@H](c1ccc(O)cc1)CC2=O the IC50 [1] was > 100 µM, the IC50 [2] was > 100 µM and the EC50 [3] was 3.05 µg/mL (≈ 9.29 µM). The CC50 at 72 h [4] was 25.4 µg/mL (≈ 77.4 µM), the selectivity ratio [5] was 8 and the IC50 [6] was > 20 µM.
In the case of O=c1c(-c2ccc(O)cc2)coc2cc(OCc3ccc(F)cc3)cc(O)c12, the IC50 [1] is reported as > 100 µM, the IC50 [2] is reported as 80 µM and the EC50 [3] is reported as 11 µg/mL (≈ 29.1 µM). For the same compound, the CC50 at 72 h [4] was > 200 µg/mL, the selectivity ratio [5] was > 18 and the IC50 [6] was > 20 µM.
For CC(C)(C)Oc1cc(O)c2c(=O)c(-c3ccc(O)cc3)coc2c1, the IC50 [1] was > 100 µM, the IC50 [2] was 70 µM and the EC50 [3] was > 47.7 µg/mL. The CC50 at 72 h [4] was 47.7 µg/mL (≈ 146 µM) and the IC50 [6] was > 20 µM.
In the case of O=c1c(-c2ccc(O)cc2)coc2cc(N3CCOCC3)cc(O)c12, the IC50 [1] is reported as > 20 µM, the IC50 [2] is reported as > 20 µM and the EC50 [3] is reported as 0.826 µg/mL (≈ 2.43 µM). For the same compound, the CC50 at 72 h [4] was > 200 µg/mL, the selectivity ratio [5] was > 242 and the IC50 [6] was 1.7 µM.
In the case of O=c1c(O)c(-c2ccc3c(c2)OC(c2ccccc2)(c2ccccc2)O3)oc2cc(O)cc(O)c12, the IC50 [1] is reported as > 20 µM, the IC50 [2] is reported as > 20 µM and the IC50 [6] is reported as > 20 µM.
For O=c1c(O)c(-c2ccc(O)c(O)c2)oc2cc(O)cc(OCc3ccc(F)cc3)c12, the IC50 [1] was > 20 µM, the IC50 [2] was 7.6 µM and the EC50 [3] was 4.54 µg/mL (≈ 11.1 µM). The CC50 at 72 h [4] was 24 µg/mL (≈ 58.5 µM), the selectivity ratio [5] was 5 and the IC50 [6] was 1.8 µM.
For O=c1c(O)c(-c2ccc(O)c(OCc3ccc(F)cc3)c2)oc2cc(O)cc(O)c12, the IC50 [1] was > 20 µM, the IC50 [2] was > 20 µM and the EC50 [3] was 0.47 µg/mL (≈ 1.15 µM). For the same compound, the CC50 at 72 h [4] was 23.8 µg/mL (≈ 58 µM), the selectivity ratio [5] was 51 and the IC50 [6] was 1.8 µM.
With O=c1c(O)c(-c2ccc(OCc3ccc(F)cc3)c(O)c2)oc2cc(O)cc(O)c12 the IC50 [1] was > 20 µM, the IC50 [2] was > 20 µM and the EC50 [3] was 4.1 µg/mL (≈ 9.99 µM). It also gave a CC50 at 72 h [4] of 23.4 µg/mL (≈ 57 µM), a selectivity ratio [5] of 6 and an IC50 [6] of 1.4 µM.
In the case of O=c1cc(-c2ccc(O)cc2)oc2cc(O)cc(O)c12 [APIGENIN], the IC50 [1] is reported as > 20 µM, the IC50 [2] is reported as > 20 µM and the EC50 [3] is reported as 4.46 µg/mL (≈ 16.5 µM). For the same compound, the CC50 at 72 h [4] was 17.2 µg/mL (≈ 63.6 µM), the selectivity ratio [5] was 4 and the IC50 [6] was 1.5 µM.
For O=c1cc(-c2ccccc2)oc2cc(O)c(O)c(O)c12 [BAICALEIN], the EC50 [3] was 1.67 µg/mL (≈ 6.18 µM) and the CC50 at 72 h [4] was 30.3 µg/mL (≈ 112 µM).
With O=c1cc(-c2ccccc2)oc2cc(O)cc(O)c12 [CHRYSIN] the IC50 [1] was > 20 µM, the IC50 [2] was > 20 µM and the EC50 [3] was 13.4 µg/mL (≈ 52.7 µM). It also gave a CC50 at 72 h [4] of 110 µg/mL (≈ 433 µM), a selectivity ratio [5] of 8 and an IC50 [6] of 1.4 µM.
For O=c1c(-c2ccc(O)cc2)coc2cc(O)cc(O)c12 [GENISTEIN], the IC50 [1] was > 20 µM, the IC50 [2] was > 20 µM and the EC50 [3] was 13.9 µg/mL (≈ 51.4 µM). The CC50 at 72 h [4] was 36.2 µg/mL (≈ 134 µM), the selectivity ratio [5] was 3 and the IC50 [6] was 1.1 µM.
With O=c1cc(-c2ccc(O)c(O)c2)oc2cc(O)cc(O)c12 [LUTEOLIN] the IC50 [1] was > 20 µM, the IC50 [2] was 8.9 µM and the EC50 [3] was 2.48 µg/mL (≈ 8.66 µM). It also gave a CC50 at 72 h [4] of 17.9 µg/mL (≈ 62.5 µM), a selectivity ratio [5] of 7 and an IC50 [6] of 0.45 µM.
With O=C1C[C@@H](c2ccc(O)cc2)Oc2cc(O)cc(O)c21 [NARINGENIN] the IC50 [1] was > 20 µM, the IC50 [2] was > 20 µM and the EC50 [3] was 9.47 µg/mL (≈ 34.8 µM). The CC50 at 72 h [4] was 142 µg/mL (≈ 520 µM), the selectivity ratio [5] was 15 and the IC50 [6] was 1.7 µM.
With O=c1c(O)c(-c2ccc(O)c(O)c2)oc2cc(O)cc(O)c12 [QUERCETIN] the IC50 [1] was > 20 µM, the IC50 [2] was 8 µM and the EC50 [3] was 2.05 µg/mL (≈ 6.78 µM). It also gave a CC50 at 72 h [4] of 105 µg/mL (≈ 347 µM), a selectivity ratio [5] of 44 and an IC50 [6] of 0.6 µM.

Source: ChEMBL document CHEMBL3286361, “Design and discovery of flavonoid-based HIV-1 integrase inhibitors targeting both the active site and the interaction with LEDGF/p75” (Bioorg Med Chem, 2014)
